Source: US20040110821A1, “GAL3 receptor antagonists for the treatment of affective disorders” (priority 2002, published 2004)
“And” between values parts separate entries of the source, which are not always exact repeats. Equal values may be shown once. Marks after values point to notes of the source that are not given here.

Test system: Male Sprague-Dawley rats
Assay: Rat Forced Swim Test (FST)
Type: in vivo
Conditions: for overall profile in the Forced Swim Test (conclusion in words): rat, in vivo
[1] = 5 mg/kg p.o., single administration 1 hr before 5 min test
[2] = 10 mg/kg p.o., single administration 1 hr before 5 min test, listed as Fluox
[3] = 10 mg/kg p.o., single administration 1 hr before 5 min test, listed as fluoxetine
[4] = 10 mg/kg p.o., single administration 24 hours before the test
[5] = 3 mg/kg p.o., single administration 1 hr before 5 min test
[6] = 10 mg/kg p.o., single administration 1 hr before 5 min test
[7] = 30 mg/kg p.o., single administration 1 hr before 5 min test
[8] = 3 mg/kg p.o., single administration 24 hours before the test
[9] = 1 mg/kg p.o., single administration 1 hr before 5 min test
[10] = 3 mg/kg p.o., single administration 1 hr before 5 min test, listed as EX22
[11] = 10 mg/kg p.o., single administration 1 hr before 5 min test, listed as EX22
[12] = 30 mg/kg p.o., single administration 1 hr before 5 min test, listed as EX22

| Compound | Climbing [5] | Diving [5] | Immobility [5] | Swimming [5] | Climbing [6] | Diving [6] | Immobility [6] | Swimming [6] | Climbing [7] | Diving [7] | Immobility [7] | Swimming [7] | overall profile in the Forced Swim Test (conclusion in words) | further results |
| --- | --- | --- | --- | --- | --- | --- | --- | --- | --- | --- | --- | --- | --- | --- |
| CNCCC(Oc1ccc(C(F)(F)F)cc1)c1ccccc1 (stereo not shown) [Fluoxetine, fluoxetine, reference compound] |  |  |  |  |  |  |  |  |  |  |  |  |  | Climbing [1]: not significantly altered; Diving [1]: not significantly altered; Immobility [1]: did not significantly alter immobility; Swimming [1]: did not significantly alter swimming; Climbing (10 mg/kg i.p., single injection 1 h before 5 min test): did not significantly alter climbing counts; Immobility [2]: 38 ± 2.3^a counts and 34 ± 2.3^b counts and 34 ± 3.0^a counts and 34 ± 3.3^b counts and 38 ± 1.3^b counts and 39 ± 1.7^d counts and 38 ± 2.2 counts; Swimming [2]: 19.8 ± 1.8^e counts and 21.8 ± 1.4^c counts and 22.8 ± 2.2^c counts and 21.3 ± 1.8^d,e counts and 21.6 ± 1.1^e counts and 19.2 ± 1.2^e counts and 20.0 ± 1.5^c counts; Diving (10 mg/kg p.o., single administration 1 hr before 5 min test, listed as fluoxet-ine): not significantly altered; Diving [3]: not significantly altered; Immobility [3]: significantly decreased immobility; Swimming [3]: significant increase in swimming behavior; Climbing [4]: not significantly altered; Diving [4]: not significantly altered; Immobility [4]: significantly decreased immobility; Swimming [4]: significant increase in swimming behavior |
| O=C1C(=Nc2cc(Cl)cc(Cl)c2)c2ccccc2N1c1ccccc1 [Example 103, 3-[(3,5-DICHLOROPHENYL)IMINO]-1-PHENYL-1,3-DIHYDRO-2H-INDOL-2-ONE] | not significantly altered | not significantly altered | did not significantly alter immobility | did not significantly alter swimming behavior | not significantly altered | not significantly altered | did not significantly alter immobility | did not significantly alter swimming behavior | not significantly altered | not significantly altered | significant decrease in immobility | significantly greater increase in swimming behavior | has antidepressant-like properties |  |
| O=C1/C(=N\c2ccc(Cl)c(Cl)c2)c2ccccc2N1c1ccsc1 [Example 272, (3Z)-3-[(3,4-DICHLOROPHENYL)IMINO]-1-(3-THIENYL)-1,3-DIHYDRO-2H-INDOL-2-ONE] |  |  |  |  |  |  |  |  |  |  |  |  | has the profile of an antidepressant-like | Climbing [8]: not significantly altered; Diving [8]: not significantly altered; Immobility [8]: significantly decreased immobility; Swimming [8]: significant increase in swimming behavior |
| CN(C)c1cc(Nc2ccc(Cl)c(Cl)c2)nc(N2CCN(Cc3ccccc3)CC2)n1 [EX151] | 2.4 ± 0.5 counts | 0.3 ± 0.2 counts | 38 ± 2.0^a counts | 19.5 ± 1.5^e counts | 2.2 ± 0.5 counts | 0.3 ± 0.2 counts | 39 ± 1.8^b counts | 18.9 ± 1.5^e counts |  |  |  |  |  | Climbing [9]: 2.3 ± 0.6 counts; Diving [9]: 0.2 ± 0.2 counts; Immobility [9]: 41 ± 2.0 counts; Swimming [9]: 16.8 ± 1.4^d counts |
| CN(C)c1cc(Nc2ccc(Cl)c(Cl)c2)nc(N2CCN(Cc3ccccc3)CC2)n1 [Example 151] | not significantly altered | not significantly altered | significantly decreased immobility | significantly increased swimming | not significantly altered | not significantly altered | significantly decreased immobility | significantly increased swimming |  |  |  |  | produces behavioral effects in the FST in rats that resemble those of antidepressants | Climbing [9]: not significantly altered; Diving [9]: not significantly altered; Immobility [9]: did not significantly alter immobility; Swimming [9]: significantly increased swimming |
| O=C1C(=Nc2ccc(C(F)(F)F)cc2)c2ccccc2N1c1ccccc1 [Example 95, 1-PHENYL-3-[[4-(TRIFLUOROMETHYL)PHENYL]IMINO]-1,3-DIHYDRO-2H-INDOL-2-ONE] | did not significantly alter swimming, climbing, immobility or diving behavior | did not significantly alter swimming, climbing, immobility or diving behavior | did not significantly alter swimming, climbing, immobility or diving behavior | did not significantly alter swimming, climbing, immobility or diving behavior |  |  | significantly increased rat immobility | significantly decreased swim behavior |  |  | significantly increased rat immobility | significantly decreased swim behavior | does not produce antidepressant-like actions in the forced swim test |  |
| Cc1ccc(Nc2cc(N3CCCCC3)nc(N(C)CCc3ccccc3)n2)cc1 [Example 22] | 2.0 ± 0.6 counts | not significantly altered | 50 ± 0.9 counts | did not significant alter swimming behavior | 2.9 ± 0.5 counts | not significantly altered | significant decrease in immobility | significant increase in swimming | significant increase in climbing | not significantly altered | significant decrease in immobility | significantly greater increase in swimming behavior | has antidepressant-like properties | Diving [10]: 0.4 ± 0.4 counts; Swimming [10]: 7.6 ± 0.5 counts; Diving [11]: 0.4 ± 0.3 counts; Immobility [11]: 41 ± 1.3^c counts; Swimming [11]: 15.3 ± 0.8^g counts; Climbing [12]: 5.2 ± 1.0^a counts; Diving [12]: 0.0 ± 0.0 counts; Immobility [12]: 31 ± 2.8^b counts; Swimming [12]: 23.2 ± 2.0^f counts |
| O=C1C(=Nc2cc(Cl)cc(Cl)c2)c2ccccc2N1c1ccccc1 [EX103] |  |  |  | 13.2 ± 1.9 counts |  |  |  |  |  |  |  |  |  |  |
| O=C1C(=Nc2ccc(Br)cc2)c2ccccc2N1c1ccccc1 [Example 98, 3-[(4-BROMOPHENYL)IMINO]-1-PHENYL-1,3-DIHYDRO-2H-INDOL-2-ONE] | no significant difference in the number of climbing counts | not significantly altered | significantly decreased immobility | significantly increased swimming | no significant difference in the number of climbing counts | not significantly altered | significantly decreased immobility | significantly increased swimming | no significant difference in the number of climbing counts | not significantly altered | significantly decreased immobility | significantly increased swimming | produces a profile in the modified Lucki version of the FST resembling that of the clinically established antidepressant fluoxetine |  |
